# Results taken from US20240423992A1, “BIOMARKERS FOR TREATING LIVER DISORDERS WITH THR-B AGONISTS AND RELATED USES” (Madrigal Pharmaceuticals, Inc., priority 2023, published 2024).
# Tests used:
# Assay type in all cases: in vivo, human
# [1] = system: adults with nonalcoholic fatty liver disease (NAFLD)/presumed nonalcoholic steatohepatitis (NASH); assay: 52-week Phase 3 trial (Example 1): hepatic fat by MRI-PDFF
# Method: A 52-week randomized, double-blind, placebo-controlled Phase 3 trial was conducted to evaluate the safety and effect of resmetirom, an oral, once-daily, liver-targeted thyroid hormone receptor-β selective agonist, on multiple biomarkers in adults with nonalcoholic fatty liver disease (NAFLD)/presumed nonalcoholic steatohepatitis (NASH). Patients were randomized to three double-blind arms (100 mg resmetirom, 80 mg resmetirom, or placebo) or one open-label arm (100 mg resmetirom). Common concomitant medications across the 4 arms were antidiabetes drugs (such as glucagon-like peptide-1 receptor agonists (GLP-1 RAs), metformin, pioglitazone, and sodium/glucose cotransporter-2 inhibitors (SGLT2i)) and drugs to manage dyslipidemia (statins).
# [2] = system: patients with Nonalcoholic Steatohepatitis; assay: Phase 3 trial in Nonalcoholic Steatohepatitis (Example 2): NASH resolution and fibrosis improvement on biopsy
# Method: (§1) A randomized, double-blind, placebo-controlled Phase 3 trial was conducted. Patients were randomly assigned to receive resmetirom 80 mg, resmetirom 100 mg, or placebo administered orally once daily. Screening biopsy results were used as baseline for histologic variables and a second biopsy was performed at Week 52.
# [3] = system: patients with Nonalcoholic Steatohepatitis; assay: Phase 3 trial in Nonalcoholic Steatohepatitis (Example 2): thyroid hormone levels
# Method: as §1
# [4] = Resmetirom 80 mg, Week 52, not on thyroxine
# [5] = Resmetirom 80 mg, Week 52, thyroxine-treated
# [6] = Resmetirom 100 mg, Week 52, not on thyroxine
# [7] = Resmetirom 100 mg, Week 52, thyroxine-treated
# [8] = independent of thyroxine replacement
smiles,measurement,setting,value
"CC(C)c1cc(Oc2c(Cl)cc(-n3nc(C#N)c(=O)[nH]c3=O)cc2Cl)n[nH]c1=O [Resmetirom, 2-[3,5-dichloro-4-[(6-oxo-5-propan-2-yl-1H-pyridazin-3-yl)oxy]phenyl]-3,5-dioxo-1,2,4-triazine-6-carbonitrile]","hepatic fat reduction, 80 mg compared with 100 mg","[1]; 80 mg resmetirom, in general",less effective than 100 mg resmetirom
same,"hepatic fat (MRI-PDFF), change from baseline","[1]; Week 52, all key patient subgroups",reduced hepatic fat from baseline
same,hepatic fat reduction by subgroup,[1]; weight gain ≥5% or <120% increase in SHBG,lower hepatic fat reduction
same,hepatic fat reduction by subgroup,[1]; weight loss ≥5% or ≥120% increase from baseline in SHBG,greater reduction in hepatic fat
same,"NASH resolution / fibrosis improvement, 100 mg compared with 80 mg","[2]; 100 mg resmetirom group, except in patients ≥65 years",generally outperformed the 80 mg group
same,patients achieving NASH resolution or fibrosis improvement compared with placebo,"[2]; Week 52 biopsy, across subgroups",significantly more resmetirom-treated patients achieving either NASH resolution or fibrosis improvement
same,"response at both endpoints (NASH resolution, fibrosis improvement) by subgroup",[2]; patients with ≥30% liver fat reduction or SHBG increase ≥120%,greater response
same,"FT3/rT3 CFB, LS Mean Difference from PBO","[3]; Resmetirom 80 mg, Week 52",0.06
same,FT3/rT3 LS Mean CFB (SE),"[3]; Resmetirom 80 mg, Week 52",0.06 (0.004)
same,"FT3 CFB, LS Mean Difference from PBO","[3]; Resmetirom 80 mg, Week 52",0.02 ng/L
same,FT3 LS Mean CFB (SE),"[3]; Resmetirom 80 mg, Week 52",−0.01 (0.030) ng/L
same,"FT4 % CFB, LS Mean Difference from PBO","[3]; Resmetirom 80 mg, Week 52",−16.6%
same,"FT4 CFB, LS Mean Difference from PBO","[3]; Resmetirom 80 mg, Week 52",-0.19 ng/dL
same,FT4 LS Mean % CFB (SE),"[3]; Resmetirom 80 mg, Week 52",−13.9 (0.96) %
same,FT4 LS Mean CFB (SE),"[3]; Resmetirom 80 mg, Week 52",−0.17 (0.011) ng/dL
same,"TBG CFB, LS Mean Difference from PBO","[3]; Resmetirom 80 mg, Week 52",-1.9 mg/L
same,TBG LS Mean CFB (SE),"[3]; Resmetirom 80 mg, Week 52",−0.32 (0.45) mg/L
same,"TSH CFB, LS Mean Difference from PBO","[3]; Resmetirom 80 mg, Week 52",−0.18 mIU/L
same,TSH LS Mean CFB (SE),"[3]; Resmetirom 80 mg, Week 52",−0.28 (0.059) mIU/L
same,"rT3 CFB, LS Mean Difference from PBO","[3]; Resmetirom 80 mg, Week 52",-4.73 ng/dL
same,rT3 LS Mean CFB (SE),"[3]; Resmetirom 80 mg, Week 52",−4.6 (0.31) ng/dL
same,"FT3/rT3 CFB, LS Mean Difference from PBO",[3]; [4],0.06
same,FT3/rT3 LS Mean CFB (SE),[3]; [4],0.06 (0.005)
same,"FT3 CFB, LS Mean Difference from PBO",[3]; [4],0.01 ng/L
same,FT3 LS Mean CFB (SE),[3]; [4],−0.01 (0.032) ng/L
same,"FT4 % CFB, LS Mean Difference from PBO",[3]; [4],−16.3%
same,"FT4 CFB, LS Mean Difference from PBO",[3]; [4],-0.18 ng/dL
same,FT4 LS Mean % CFB (SE),[3]; [4],−13.8 (0.97) %
same,FT4 LS Mean CFB (SE),[3]; [4],−0.16 (0.011) ng/dL
same,"TBG CFB, LS Mean Difference from PBO",[3]; [4],-1.8 mg/L
same,TBG LS Mean CFB (SE),[3]; [4],−0.19 (0.47) mg/L
same,"TSH CFB, LS Mean Difference from PBO",[3]; [4],−0.15 mIU/L
same,TSH LS Mean CFB (SE),[3]; [4],−0.23 (0.056) mIU/L
same,"rT3 CFB, LS Mean Difference from PBO",[3]; [4],-4.5 ng/dL
same,rT3 LS Mean CFB (SE),[3]; [4],−4.5 (0.33) ng/dL
same,"FT3/rT3 CFB, LS Mean Difference from PBO",[3]; [5],0.06
same,FT3/rT3 LS Mean CFB (SE),[3]; [5],0.05 (0.011)
same,"FT3 CFB, LS Mean Difference from PBO",[3]; [5],0.05 ng/L
same,FT3 LS Mean CFB (SE),[3]; [5],0.04 (0.089) ng/L
same,"FT4 % CFB, LS Mean Difference from PBO",[3]; [5],−17.9%
same,"FT4 CFB, LS Mean Difference from PBO",[3]; [5],-0.21 ng/dL
same,FT4 LS Mean % CFB (SE),[3]; [5],−14.0 (3.6) %
same,FT4 LS Mean CFB (SE),[3]; [5],−0.18 (0.041) ng/dL
same,"TBG CFB, LS Mean Difference from PBO",[3]; [5],-2.6 mg/L
same,TBG LS Mean CFB (SE),[3]; [5],−1.1 (1.4) mg/L
same,"TSH CFB, LS Mean Difference from PBO",[3]; [5],−0.41 mIU/L
same,TSH LS Mean CFB (SE),[3]; [5],−0.63 (0.27) mIU/L
same,"rT3 CFB, LS Mean Difference from PBO",[3]; [5],-5.1 ng/dL
same,rT3 LS Mean CFB (SE),[3]; [5],−5.1 (0.94) ng/dL
same,"FT3/rT3 CFB, LS Mean Difference from PBO","[3]; Resmetirom 100 mg, Week 52",0.07
same,FT3/rT3 LS Mean CFB (SE),"[3]; Resmetirom 100 mg, Week 52",0.06 (0.004)
same,"FT3 CFB, LS Mean Difference from PBO","[3]; Resmetirom 100 mg, Week 52",-0.05 ng/L
same,FT3 LS Mean CFB (SE),"[3]; Resmetirom 100 mg, Week 52",−0.08 (0.031) ng/L
same,"FT4 % CFB, LS Mean Difference from PBO","[3]; Resmetirom 100 mg, Week 52",−20.7%
same,"FT4 CFB, LS Mean Difference from PBO","[3]; Resmetirom 100 mg, Week 52",-0.24 ng/dL
same,FT4 LS Mean % CFB (SE),"[3]; Resmetirom 100 mg, Week 52",−18.1 (0.97) %
same,FT4 LS Mean CFB (SE),"[3]; Resmetirom 100 mg, Week 52",−0.22 (0.011) ng/dL
same,"TBG CFB, LS Mean Difference from PBO","[3]; Resmetirom 100 mg, Week 52",-2.2 mg/L
same,TBG LS Mean CFB (SE),"[3]; Resmetirom 100 mg, Week 52",−0.60 (0.45) mg/L
same,"TSH CFB, LS Mean Difference from PBO","[3]; Resmetirom 100 mg, Week 52",−0.10 mIU/L
same,TSH LS Mean CFB (SE),"[3]; Resmetirom 100 mg, Week 52",−0.20 (0.060) mIU/L
same,"rT3 CFB, LS Mean Difference from PBO","[3]; Resmetirom 100 mg, Week 52",-5.2 ng/dL
same,rT3 LS Mean CFB (SE),"[3]; Resmetirom 100 mg, Week 52",−5.1 (0.32) ng/dL
same,"FT3/rT3 CFB, LS Mean Difference from PBO",[3]; [6],0.07
same,FT3/rT3 LS Mean CFB (SE),[3]; [6],0.06 (0.005)
same,"FT3 CFB, LS Mean Difference from PBO",[3]; [6],-0.06 ng/L
same,FT3 LS Mean CFB (SE),[3]; [6],−0.08 (0.033) ng/L
same,"FT4 % CFB, LS Mean Difference from PBO",[3]; [6],−20.0%
same,"FT4 CFB, LS Mean Difference from PBO",[3]; [6],-0.23 ng/dL
same,FT4 LS Mean % CFB (SE),[3]; [6],−17.6 (1.0) %
same,FT4 LS Mean CFB (SE),[3]; [6],−0.21 (0.011) ng/dL
same,"TBG CFB, LS Mean Difference from PBO",[3]; [6],-1.8 mg/L
same,TBG LS Mean CFB (SE),[3]; [6],−0.21 (0.49) mg/L
same,"TSH CFB, LS Mean Difference from PBO",[3]; [6],−0.12 mIU/L
same,TSH LS Mean CFB (SE),[3]; [6],−0.20 (0.058) mIU/L
same,"rT3 CFB, LS Mean Difference from PBO",[3]; [6],-5.1 ng/dL
same,rT3 LS Mean CFB (SE),[3]; [6],−4.9 (0.34) ng/dL
same,"FT3/rT3 CFB, LS Mean Difference from PBO",[3]; [7],0.06
same,FT3/rT3 LS Mean CFB (SE),[3]; [7],0.06 (0.010)
same,"FT3 CFB, LS Mean Difference from PBO",[3]; [7],-0.01 ng/L
same,FT3 LS Mean CFB (SE),[3]; [7],−0.03 (0.081) ng/L
same,"FT4 % CFB, LS Mean Difference from PBO",[3]; [7],−24.4%
same,"FT4 CFB, LS Mean Difference from PBO",[3]; [7],-0.29 ng/dL
same,FT4 LS Mean % CFB (SE),[3]; [7],−20.6 (3.3) %
same,FT4 LS Mean CFB (SE),[3]; [7],−0.26 (0.037) ng/dL
same,"TBG CFB, LS Mean Difference from PBO",[3]; [7],-4.6 mg/L
same,TBG LS Mean CFB (SE),[3]; [7],−3.1 (1.3) mg/L
same,"TSH CFB, LS Mean Difference from PBO",[3]; [7],0.09 mIU/L
same,TSH LS Mean CFB (SE),[3]; [7],−0.13 (0.25) mIU/L
same,"rT3 CFB, LS Mean Difference from PBO",[3]; [7],-6.3 ng/dL
same,rT3 LS Mean CFB (SE),[3]; [7],−6.3 (0.85) ng/dL
same,Thyroid hormone indices,[3]; in vivo,not clinically impacted
same,effect on free triiodothyronine (FT3),[3]; [8],no effect
same,effect on thyroid-stimulating hormone (TSH),[3]; [8],no effect
same,reduction of free thyroxine (FT4),[3]; resmetirom groups,16-19%
